pEC50, pIC50: −log10 of the molar value.

One may read the pIC50 as −log10 of the IC50, conventionally taken in molar units. The low end stands for a high IC50, the high end for a low IC50. Broadly, the pEC50 is −log10 of the EC50, conventionally taken in molar units.

One assay addresses T1, human DGKα (Homo sapiens, UniProt P23743).
T1 construct: purchased Carna Biosciences'; inferred from the same paragraph's 'obtained from Carna Biosciences')
The assay can be described thus: DGKα Biochemical Activity Assay (ADP-Glo).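 Also: recombinant enzyme converting diacylglycerol in lipid micelles with ATP, ADP formed detected by luminescence, IC50 from a four-parameter nonlinear fit, geometric mean across experiments.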 A general note: In ADP-Glo the light output rises with the ADP produced.

Assay [1] concerns Jurkat NFκB-luciferase cells. The assay can be described thus: Jurkat NFκB-Luciferase Assay.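 Also: bioluminescence read-out normalized to DMSO basal activation and to maximum enhancement at 1 µM compound, rising signal indicating stronger T-cell activation through DGKα inhibition.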 The class given is cell-based. Conditions: Homo sapiens; Jurkat NFκB-luciferase cells activated with anti-CD3 antibody (OKT3), 2.5 hrs at 37° C., One-Glo Ex; geometric mean; read-out: DGK NFKb Luciferase EC50.

T1 sequence (P23743 whole entry): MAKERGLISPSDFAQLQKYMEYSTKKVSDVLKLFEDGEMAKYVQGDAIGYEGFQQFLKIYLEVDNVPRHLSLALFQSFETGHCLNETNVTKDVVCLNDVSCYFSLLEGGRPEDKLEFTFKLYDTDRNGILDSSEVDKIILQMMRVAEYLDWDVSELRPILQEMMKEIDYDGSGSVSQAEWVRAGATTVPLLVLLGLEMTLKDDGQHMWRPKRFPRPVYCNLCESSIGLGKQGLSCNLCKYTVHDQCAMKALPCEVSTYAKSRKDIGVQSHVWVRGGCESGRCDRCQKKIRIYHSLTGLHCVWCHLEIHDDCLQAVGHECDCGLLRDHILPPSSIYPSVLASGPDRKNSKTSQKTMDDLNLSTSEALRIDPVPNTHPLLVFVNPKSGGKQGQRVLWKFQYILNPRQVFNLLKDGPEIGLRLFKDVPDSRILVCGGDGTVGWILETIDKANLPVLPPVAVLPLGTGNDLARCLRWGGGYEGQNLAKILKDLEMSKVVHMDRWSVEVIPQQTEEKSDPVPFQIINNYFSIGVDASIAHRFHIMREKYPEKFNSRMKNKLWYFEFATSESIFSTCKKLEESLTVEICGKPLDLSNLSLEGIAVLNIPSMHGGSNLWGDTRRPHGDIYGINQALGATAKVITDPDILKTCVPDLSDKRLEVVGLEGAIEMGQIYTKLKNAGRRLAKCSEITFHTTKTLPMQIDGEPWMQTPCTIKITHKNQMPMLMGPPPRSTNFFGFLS

With `[2H]C([2H])([2H])n1c(=O)nc(N(CC(F)F)c2cc(F)cc(C#CC3(C(F)(F)F)CC3)c2)c2c(F)cccc21` [Example 22, 4-[N-(2,2-difluoroethyl)-3-fluoro-5-[2-[1-(trifluoromethyl)cyclopropyl]ethynyl]anilino]-5-fluoro-1-(trideuteriomethyl)quinazolin-2-one], at human DGKα, the pIC50 was 7.25. Further, the pEC50 in assay [1] was 8.79.

`O=c1nc(N(CC(F)(F)F)c2cccc(C#CC3(C(F)(F)F)CC3)c2)c2ccc(Cl)cc2[nH]1` [Example 24, 7-chloro-4-[N-(2,2,2-trifluoroethyl)-3-[2-[1-(trifluoromethyl)cyclopropyl]ethynyl]anilino]-1H-quinazolin-2-one] gave a pIC50 against human DGKα of 6.76. Besides, the pEC50 in assay [1] was 8.62.

Compound `[2H]C([2H])([2H])n1c(=O)nc(N(CC(F)(F)F)c2cccc(C#CC3(C(F)(F)F)CC3)c2)c2ccc(Cl)cc21` [Example 25, 7-chloro-1-(trideuteriomethyl)-4-[N-(2,2,2-trifluoroethyl)-3-[2-[1-(trifluoromethyl)cyclopropyl]ethynyl]anilino]quinazolin-2-one] showed a pIC50 at human DGKα of 7.23. In assay [1], the pEC50 is 9.39.

In the case of `O=c1nc(N(CC(F)F)c2cc(F)cc(C#CC3(C(F)(F)F)CC3)c2)c2ccc(Cl)cc2[nH]1` [Example 26, 7-chloro-4-[N-(2,2-difluoroethyl)-3-fluoro-5-[2-[1-(trifluoromethyl)cyclopropyl]ethynyl]anilino]-1H-quinazolin-2-one], the pIC50 against human DGKα is 6.50. Also, the pEC50 in assay [1] was 8.97.

Turning to `O=c1nc(N(CC(F)(F)F)c2cc(F)cc(C#CC3(C(F)(F)F)CC3)c2)c2cc(F)ccc2[nH]1` [Example 27, 6-fluoro-4-[3-fluoro-N-(2,2,2-trifluoroethyl)-5-[2-[1-(trifluoromethyl)cyclopropyl]ethynyl]anilino]-1H-quinazolin-2-one], the pIC50 on human DGKα was 7.01. Further, the pEC50 in assay [1] was 8.49.

At human DGKα, `Cn1c(=O)nc(N(CC(F)F)c2cc(F)cc(C#CC3(C(F)(F)F)CC3)c2)c2ccc(Cl)cc21` [Example 28, 7-chloro-4-[N-(2,2-difluoroethyl)-3-fluoro-5-[2-[1-(trifluoromethyl)cyclopropyl]ethynyl]anilino]-1-methyl-quinazolin-2-one] gave a pIC50 of 6.77. The pEC50 in assay [1] was 8.94.

With `O=c1nc(N(CC(F)(F)F)c2cc(F)cc(C#CC3(C(F)(F)F)CC3)c2)c2ccc(Cl)cc2[nH]1` [Example 29, 7-chloro-4-[3-fluoro-N-(2,2,2-trifluoroethyl)-5-[2-[1-(trifluoromethyl)cyclopropyl]ethynyl]anilino]-1H-quinazolin-2-one], the pIC50 at human DGKα is 6.07. For the same compound, the pEC50 in assay [1] was 8.73.

Regarding `Cn1c(=O)nc(N(CC(F)(F)F)c2cc(F)cc(C#CC3(C(F)(F)F)CC3)c2)c2cc(F)ccc21` [Example 30, 6-fluoro-4-[3-fluoro-N-(2,2,2-trifluoroethyl)-5-[2-[1-(trifluoromethyl)cyclopropyl]ethynyl]anilino]-1-methyl-quinazolin-2-one], the pIC50 at human DGKα is 7.57. Further, the pEC50 in assay [1] was 8.71.

For the compound `Cn1c(=O)nc(N(CC(F)(F)F)c2cc(F)cc(C#CC3(C(F)(F)F)CC3)c2)c2c(F)cccc21` [Example 31, 5-fluoro-4-[3-fluoro-N-(2,2,2-trifluoroethyl)-5-[2-[1-(trifluoromethyl)cyclopropyl]ethynyl]anilino]-1-methyl-quinazolin-2-one], the pIC50 on human DGKα is 7.34. Moreover, the pEC50 in assay [1] is 8.54.

As to `Cn1c(=O)nc(N(CC(F)(F)F)c2cc(F)cc(C#CC3(C(F)(F)F)CC3)c2)c2ccc(Cl)cc21` [Example 32, 7-chloro-4-[3-fluoro-N-(2,2,2-trifluoroethyl)-5-[2-[1-(trifluoromethyl)cyclopropyl]ethynyl]anilino]-1-methyl-quinazolin-2-one], at human DGKα, the pIC50 was 6.91. Further, in assay [1], the pEC50 was 8.99.

`O=c1nc(N(CC(F)F)c2cc(F)cc(C#CC3(C(F)(F)F)CC3)c2)c2ccc(Cl)cc2n1CCO` [Example 33, 7-chloro-4-[N-(2,2-difluoroethyl)-3-fluoro-5-[2-[1-(trifluoromethyl)cyclopropyl]ethynyl]anilino]-1-(2-hydroxyethyl)quinazolin-2-one] gave a pIC50 against human DGKα of 6.55. Also, the pEC50 in assay [1] is 8.44.

In the case of `CC(C)(O)C#Cc1cc(F)cc(N(CC(F)F)c2nc(=O)[nH]c3cccc(F)c23)c1` [Example 34, 4-[N-(2,2-difluoroethyl)-3-fluoro-5-(3-hydroxy-3-methyl-but-1-ynyl)anilino]-5-fluoro-1H-quinazolin-2-one], the pIC50 against human DGKα was 7.48. Besides, the pEC50 in assay [1] was 7.87.

At human DGKα, `O=c1nc(N(CC(F)F)c2cc(F)cc(C#CC3(C(F)(F)F)CC3)c2)c2c(F)c(F)ccc2[nH]1` [Example 35, 4-[N-(2,2-difluoroethyl)-3-fluoro-5-[2-[1-(trifluoromethyl)cyclopropyl]ethynyl]anilino]-5,6-difluoro-1H-quinazolin-2-one] gave a pIC50 of 6.80. In addition, in assay [1], the pEC50 was 9.00.

At human DGKα, `CCn1c(=O)nc(N(CC(F)F)c2cc(F)cc(C#CC3(C(F)(F)F)CC3)c2)c2c(F)cccc21` [Example 36, 4-[N-(2,2-difluoroethyl)-3-fluoro-5-[2-[1-(trifluoromethyl)cyclopropyl]ethynyl]anilino]-1-ethyl-5-fluoro-quinazolin-2-one] had a pIC50 of 6.74. Also, in assay [1], the pEC50 is 7.67.

On human DGKα, `CCn1c(=O)nc(N(CC(F)F)c2cc(F)cc(C#CC(C)(C)O)c2)c2c(F)cccc21` [Example 37, 4-[N-(2,2-difluoroethyl)-3-fluoro-5-(3-hydroxy-3-methyl-but-1-ynyl)anilino]-1-ethyl-5-fluoro-quinazolin-2-one] had a negative-log IC50 (pIC50) of 7.27. For the same compound, in assay [1], the pEC50 was 7.40.

On to `[2H]C([2H])([2H])n1c(=O)nc(N(CC(F)F)c2cc(F)cc(C#CC(C)(C)O)c2)c2c(F)cccc21` [Example 38, 4-[N-(2,2-difluoroethyl)-3-fluoro-5-(3-hydroxy-3-methyl-but-1-ynyl)anilino]-5-fluoro-1-(trideuteriomethyl)quinazolin-2-one], for which, at human DGKα, the pIC50 was 7.79. In assay [1], the pEC50 is 7.95.

The compound `O=c1nc(N(CC(F)F)c2cc(F)cc(-c3cnc(C4CC4)cn3)c2)c2c(F)c(F)ccc2[nH]1` [Example 39, 4-[3-(5-cyclopropylpyrazin-2-yl)-N-(2,2-difluoroethyl)-5-fluoro-anilino]-5,6-difluoro-1H-quinazolin-2-one] showed a pIC50 against human DGKα of 7.87. In addition, in assay [1], the pEC50 was 9.15.

Compound `O=c1nc(N2CCCc3c(C#CC4(C(F)(F)F)CC4)cccc32)c2c(F)c(F)ccc2[nH]1` [Example 40, 5,6-difluoro-4-[5-[2-[1-(trifluoromethyl)cyclopropyl]ethynyl]-3,4-dihydro-2H-quinolin-1-yl]-1H-quinazolin-2-one] gave a pIC50 against human DGKα of 7.87. For the same compound, in assay [1], the pEC50 was 9.40.

At human DGKα, `[2H]C([2H])([2H])n1c(=O)nc(N(CC(F)F)c2cc(F)cc(C#CC3(C(F)(F)F)CC3)c2)c2c(F)c(F)ccc21` [Example 41, 4-[N-(2,2-difluoroethyl)-3-fluoro-5-[2-[1-(trifluoromethyl)cyclopropyl]ethynyl]anilino]-5,6-difluoro-1-(trideuteriomethyl)quinazolin-2-one] gave a pIC50 of 8.02. For the same compound, the pEC50 in assay [1] was 9.00.
